Reference: patent US12319891B2, “Method for releasing aldehyde or ketone” (TAKASAGO INTERNATIONAL CORPORATION, priority 2017, dated 2025)

Tests used:
[1] = molecular target: T1, lipase preparation Lipex 100 L produced by Novozymes (Thermomyces lanuginosus, UniProt O59952, N255R/T253R); test: LIPASE-induced fragrance emission test (Lipex 100 L); assay type: biochemical; settings: GC/MS head space peak area of released compound minus water control; 10 mg compound in 1 g aqueous 1% Lipex 100L; released: menthone (1-1), hexenal (1-2), citral (1-3)
T1 construct: purchased Novozymes Lipex 100 L
T1 sequence (O59952 23-291 T253R/N255R): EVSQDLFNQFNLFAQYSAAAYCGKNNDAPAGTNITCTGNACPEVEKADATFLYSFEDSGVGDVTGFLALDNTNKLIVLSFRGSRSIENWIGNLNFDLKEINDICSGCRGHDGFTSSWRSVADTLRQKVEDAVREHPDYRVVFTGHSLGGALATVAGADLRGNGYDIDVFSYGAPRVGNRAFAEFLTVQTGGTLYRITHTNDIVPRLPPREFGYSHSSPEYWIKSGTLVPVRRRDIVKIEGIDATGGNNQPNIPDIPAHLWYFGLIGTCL
Experimental: (§1) 10 mg of each of the compounds of Examples 1-1 to 1-3 and 1 g of an aqueous 1% lipase preparation solution were charged in a vial bottle and mixed and after hermetically sealing the bottle, the mixture was subjected to GC/MS analysis of the head space component to obtain a peak area of the fragrance emitting compound. As a control, water was used in place of the aqueous 1% lipase preparation solution, and the peak area of the control was obtained by the same method.
(§2) The fragrance emission amount was determined from the difference between the peak area of the obtained fragrance emitting compound and the peak area of the control. As the lipase preparation, Lipex 100 L produced by Novozymes, and AY “Amano” 30SD produced by Amano Enzyme Inc. were used.
(§3) • Measuring apparatus: 7890GC/5975MSD (manufactured by Agilent Technologies) • Column: BC-WAX 50 m×0.25 mm I.D. • Temperature rise: 70° C.→220° C., 4° C./min • Split ratio: 60:1

[2] = test system: Propionibacterium acnes strain JCM6473; test: Deodorizing component emission test by microorganism; assay type: cell-based; settings: GC/MS head space peak area minus control; 10 mg in 3 mL culture solution, static culture 28° C. 3 days; released: hexenal (2-2), citronellal (2-3)
Experimental: (§4) After inoculating bacteria in GAM bouillon liquid medium containing Hemin 0.5 ppm and Menadione 0.5 ppm, static culture was performed at 28° C. for 3 days under anaerobic conditions. 3 mL of the resulting preculture solution was transferred to a vial bottle, and 10 mg of each of the compounds of Examples 2-2 to 2-6 was mixed, followed by hermetically sealing the bottle. Thereafter, static culture was further performed at 28° C. for 3 days.
(§5) A peak area of the deodorizing compound was obtained by performing GC/MS analysis of the head space component contained in the vial bottle having 3 mL of microorganism culture solution in which 10 mg of each of the compound of Examples 2-2 to 2-6 was mixed. A microorganism culture solution having not mixed therein each of the compounds of Examples 2-2 to 2-6 was used as the control, and a peak area of the control was obtained by the same method as above.
(§6) The difference between the peak area of the deodorizing compound and the peak area of the control was calculated as the deodorizing component emission amount, and the results are shown in Tables 10 to 12.
(§7) • Measuring apparatus: 7890GC/5975MSD (manufactured by Agilent Technologies) • Column: BC-WAX 50 m×0.25 mm I.D. • Temperature rise: 70° C.→220° C., 4° C./min • Split ratio: splitless

[3] = test system: Pseudomonas aeruginosa strain NBRC13275; test: as above; assay type: cell-based; settings: GC/MS head space peak area minus control; 10 mg in 3 mL culture solution, 30° C. 20 hours; released: hexenal (2-2), citronellal (2-3)
Experimental: (§8) Culture of Staphylococcus aureus strain NBRC12732, Staphylococcus epidermidis strain JCM2414T, Corynebacterium xerosis strain JCM1324, Pseudomonas aeruginosa strain NBRC13275, Bacillus subtilis strain NBRC3134, and Moraxella osloensis strain ATCC19976:
(§9) After inoculating each of bacteria in Muller-Hinton liquid medium, shaking culture was performed at 30° C. for 20 hours. 3 mL of the resulting preculture solution was transferred to a vial bottle, and 10 mg of each of the compounds of Examples 2-2 to 2-6 was mixed, followed by hermetically sealing the bottle. Thereafter, shaking culture was further performed at 30° C. for 20 hours.
as §5, §6, §7

[4] = test system: Corynebacterium xerosis strain JCM1324; test: as above; assay type: cell-based; settings: GC/MS head space peak area minus control; 10 mg in 3 mL culture solution, 30° C. 20 hours; released: hexenal (2-2), citronellal (2-3)
Experimental: as §8, §9, §5, §6, §7

[5] = test system: Bacillus subtilis strain NBRC3134; test: as above; assay type: cell-based; settings: GC/MS head space peak area minus control; 10 mg in 3 mL culture solution, 30° C. 20 hours; released: hexenal (2-2), citronellal (2-3)
Experimental: as §8, §9, §5, §6, §7

[6] = test system: Moraxella osloensis strain ATCC19976; test: as above; assay type: cell-based; settings: GC/MS head space peak area minus control; 10 mg in 3 mL culture solution, 30° C. 20 hours; released: hexenal (2-2), citronellal (2-3)
Experimental: as §8, §9, §5, §6, §7

[7] = test system: Staphylococcus epidermidis strain JCM2414T; test: as above; assay type: cell-based; settings: GC/MS head space peak area minus control; 10 mg in 3 mL culture solution, 30° C. 20 hours; released: hexenal (2-2), citronellal (2-3)
Experimental: as §8, §9, §5, §6, §7

[8] = test system: lipase preparation AY "Amano" 30SD produced by Amano Enzyme Inc.; test: LIPASE-induced fragrance emission test (AY "Amano" 30SD); assay type: biochemical; settings: GC/MS head space peak area of released citral minus water control; 10 mg compound in 1 g aqueous 1% AY "Amano" 30SD
Experimental: as §1, §2, §3

[9] = test system: Staphylococcus aureus strain NBRC12732; test: Deodorizing component emission test by microorganism; assay type: cell-based; settings: GC/MS head space peak area minus control; 10 mg compound in 3 mL culture solution, 30° C. 20 hours; released: citronellal (2-3), 2,6-dimethyl-5-heptenal (2-4), trimethylhexanal (2-5), octanal (2-6)
Experimental: as §8, §9, §5, §6, §7

[10] = test system: Malassezia furfur strain NBRC0656; test: as above; assay type: cell-based; settings: GC/MS head space peak area of trimethylhexanal minus control; 10 mg in 3 mL culture solution, static culture 28° C. 3 days
Experimental: as §4, with “Sabouraud” for “GAM bouillon”, “0.1% Tween 80,” for “Hemin 0.5 ppm and Menadione 0.5 ppm,”
as §5, §6, §7

In the case of `CC(C)C1=C(OC(=O)c2ccccc2)C[C@H](C)CC1` [Example 1-1, 2-isopropyl-5-methyl-1-cyclohexenyl Benzoate], the Fragrance emission amount [1] is reported as 76,407,359.
`CCC=CC=COC(=O)c1ccccc1` [Example 1-2, 1,3-hexadienyl Benzoate] was tested, and the “Deodorizing component emission amount” value [2] was 3,265,759, the Fragrance emission amount [1] was 12,076,381 and the “Deodorizing component emission amount” value [3] was 10,638,380. For the same compound, the “Deodorizing component emission amount” value [4] was 15,168,728, the “Deodorizing component emission amount” value [5] was 106,596,512 and the “Deodorizing component emission amount” value [6] was 8,864,491. The “Deodorizing component emission amount” value [7] was 17,179,106.
With `CC(C)=CCC=C(C)C=COC(=O)c1ccccc1` [Example 1-3, 3,7-dimethylocta-1,3,6-trienyl Benzoate] the Fragrance emission amount [8] was 16,031,669 and the Fragrance emission amount [1] was 5,098,870.
In the case of `CC(C)=CCCC(C)C=COC(=O)c1ccccc1` (stereo not drawn) [Example 2-3, 3,7-dimethylocta-1,6-dienyl Benzoate], the “Deodorizing component emission amount” value [2] is reported as 15,450,553, the “Deodorizing component emission amount” value [3] is reported as 42,891,551 and the “Deodorizing component emission amount” value [4] is reported as 692,091,257. The “Deodorizing component emission amount” value [9] was 1,064,240,572, the “Deodorizing component emission amount” value [5] was 66,939,425 and the “Deodorizing component emission amount” value [6] was 25,608,586. For the same compound, the “Deodorizing component emission amount” value [7] was 76,886,509.
With `CC(C)=CCCC(C)=COC(=O)c1ccccc1` [Example 2-4, 2,6-dimethylhepta-1,5-dienyl Benzoate] the “Deodorizing component emission amount” value [9] was 132,554,000.
With `CC(C=COC(=O)c1ccccc1)CC(C)(C)C` (stereo not drawn) [Example 2-5, 3,5,5-trimethyl-1-hexenyl Benzoate] the “Deodorizing component emission amount” value [10] was 19,153,037 and the “Deodorizing component emission amount” value [9] was 189,916,125.
In the case of `CCCCCCC=COC(=O)c1ccccc1` [Example 2-6, 1-octenyl Benzoate], the “Deodorizing component emission amount” value [9] is reported as 129,928,279.
